Source: ChEMBL document CHEMBL3885861, “Open TG-GATES”

Species on record: Rattus norvegicus
Assay: Open TG-GATES - Regimen: Single
Format: toxicity, organism-based, Sprague-Dawley
Set-up: regimen Single, gender Male, age 6 weeks
Settings: in vivo, po, 0 mg/kg, route gavage, dose level Control; for APTT / Bas / Eos / Fbg / Hb / Ht / Lym / MCH / MCHC / MCV / Mono / Neu / PT / Plat / RBC / Ret / WBC: tissue Blood; for KIDNEY_L / KIDNEY_R / KIDNEY_TOTAL: tissue Kidney; for LIVER: tissue Liver; for A/G / ALP / ALT / AST / BUN / CRE / Ca / Cl / DBIL / GLC / IP / K / LDH / Na / PL / RALB / TBIL / TC / TG / TP / gamma-GTP: tissue Plasma

CC(=N)S [THIOACETAMIDE]
TERMINAL_BW (3 h): 187.1 g | APTT (3 h): 17.5 s | Bas (3 h): 0% | Eos (3 h): 0.6% | Fbg (3 h): 224.8 mg/dL | Hb (3 h): 13.3 g/dL | Ht (3 h): 40% | Lym (3 h): 77.6% | MCH (3 h): 21.7 pg | MCHC (3 h): 33.1% | MCV (3 h): 65.4 fL | Mono (3 h): 8.2% | Neu (3 h): 13.4% | PT (3 h): 12 s | Plat (3 h): 101.8 x10_4/uL | RBC (3 h): 611.6 x10_4/ul | Ret (3 h): 8.4% | WBC (3 h): 120.6 x10_2/uL | KIDNEY_L (3 h): 0.9 g | KIDNEY_R (3 h): 0.9 g | KIDNEY_TOTAL (3 h): 1.7 g | LIVER (3 h): 8.7 g | A/G (3 h): 2.1 | ALP (3 h): 962.8 IU/L | ALT (3 h): 34.4 IU/L | AST (3 h): 69.2 IU/L | BUN (3 h): 10.2 mg/dL | CRE (3 h): 0.5 mg/dL | Ca (3 h): 10.6 mg/dL | Cl (3 h): 103.6 meq/L | DBIL (3 h): 0 mg/dL | GLC (3 h): 181.6 mg/dL | IP (3 h): 9.1 mg/dL | K (3 h): 4.8 meq/L | LDH (3 h): 87.6 IU/L | Na (3 h): 137.2 meq/L | PL (3 h): 141.8 mg/dL | RALB (3 h): 3.7 g/dL | TBIL (3 h): 0.4 mg/dL | TC (3 h): 79.8 mg/dL | TG (3 h): 52 mg/dL | TP (3 h): 5.5 g/dL | gamma-GTP (3 h): 1.8 IU/L | TERMINAL_BW (6 h): 185.6 g | APTT (6 h): 17 s | Bas (6 h): 0% | Eos (6 h): 1% | Fbg (6 h): 221.6 mg/dL | Hb (6 h): 13.1 g/dL | Ht (6 h): 39.7% | Lym (6 h): 79% | MCH (6 h): 21.6 pg | MCHC (6 h): 33.1% | MCV (6 h): 65.2 fL | Mono (6 h): 7.8% | Neu (6 h): 12.8% | PT (6 h): 12.1 s | Plat (6 h): 104 x10_4/uL | RBC (6 h): 610.4 x10_4/ul | Ret (6 h): 9.2% | WBC (6 h): 126.6 x10_2/uL | KIDNEY_L (6 h): 0.9 g | KIDNEY_R (6 h): 0.9 g | KIDNEY_TOTAL (6 h): 1.8 g | LIVER (6 h): 8.3 g | A/G (6 h): 2.4 | ALP (6 h): 828.6 IU/L | ALT (6 h): 30.2 IU/L | AST (6 h): 65.2 IU/L | BUN (6 h): 10.8 mg/dL | CRE (6 h): 0.6 mg/dL | Ca (6 h): 10.2 mg/dL | Cl (6 h): 103.8 meq/L | DBIL (6 h): 0.012 mg/dL | GLC (6 h): 182.4 mg/dL | IP (6 h): 9.6 mg/dL | K (6 h): 5.1 meq/L | LDH (6 h): 72.2 IU/L | Na (6 h): 136.6 meq/L | PL (6 h): 140.6 mg/dL | RALB (6 h): 3.8 g/dL | TBIL (6 h): 0.4 mg/dL | TC (6 h): 80.8 mg/dL | TG (6 h): 61.8 mg/dL | TP (6 h): 5.4 g/dL | gamma-GTP (6 h): 1 IU/L | TERMINAL_BW (9 h): 186.9 g | APTT (9 h): 16.2 s | Bas (9 h): 0% | Eos (9 h): 1% | Fbg (9 h): 226.8 mg/dL | Hb (9 h): 13 g/dL | Ht (9 h): 39.5% | Lym (9 h): 75% | MCH (9 h): 22 pg | MCHC (9 h): 33% | MCV (9 h): 66.7 fL | Mono (9 h): 7.8% | Neu (9 h): 16.2% | PT (9 h): 12.4 s | Plat (9 h): 107.7 x10_4/uL | RBC (9 h): 592 x10_4/ul | Ret (9 h): 9.4% | WBC (9 h): 120.6 x10_2/uL | KIDNEY_L (9 h): 0.9 g | KIDNEY_R (9 h): 0.9 g | KIDNEY_TOTAL (9 h): 1.8 g | LIVER (9 h): 8 g | A/G (9 h): 2 | ALP (9 h): 859.8 IU/L | ALT (9 h): 32.2 IU/L | AST (9 h): 62.8 IU/L | BUN (9 h): 13 mg/dL | CRE (9 h): 0.5 mg/dL | Ca (9 h): 10.3 mg/dL | Cl (9 h): 104.6 meq/L | DBIL (9 h): 0.03 mg/dL | GLC (9 h): 186.2 mg/dL | IP (9 h): 9.8 mg/dL | K (9 h): 4.8 meq/L | LDH (9 h): 84.4 IU/L | Na (9 h): 136.6 meq/L | PL (9 h): 124 mg/dL | RALB (9 h): 3.7 g/dL | TBIL (9 h): 0.4 mg/dL | TC (9 h): 71.8 mg/dL | TG (9 h): 42 mg/dL | TP (9 h): 5.6 g/dL | gamma-GTP (9 h): 1.4 IU/L | TERMINAL_BW (24 h): 198.1 g | APTT (24 h): 17.2 s | Bas (24 h): 0% | Eos (24 h): 0.8% | Fbg (24 h): 218.5 mg/dL | Hb (24 h): 13.3 g/dL | Ht (24 h): 40.6% | Lym (24 h): 80.8% | MCH (24 h): 21.1 pg | MCHC (24 h): 32.9% | MCV (24 h): 64.2 fL | Mono (24 h): 6.2% | Neu (24 h): 12.5% | PT (24 h): 12.1 s | Plat (24 h): 107.1 x10_4/uL | RBC (24 h): 632.8 x10_4/ul | Ret (24 h): 8.1% | WBC (24 h): 135 x10_2/uL | KIDNEY_L (24 h): 0.9 g | KIDNEY_R (24 h): 0.9 g | KIDNEY_TOTAL (24 h): 1.8 g | LIVER (24 h): 9.7 g | A/G (24 h): 2.2 | ALP (24 h): 883 IU/L | ALT (24 h): 32.5 IU/L | AST (24 h): 63.5 IU/L | BUN (24 h): 17.2 mg/dL | CRE (24 h): 0.5 mg/dL | Ca (24 h): 10.4 mg/dL | Cl (24 h): 102.8 meq/L | DBIL (24 h): 0.0425 mg/dL | GLC (24 h): 183.2 mg/dL | IP (24 h): 7.2 mg/dL | K (24 h): 5.4 meq/L | LDH (24 h): 87.2 IU/L | Na (24 h): 136 meq/L | PL (24 h): 152.8 mg/dL | RALB (24 h): 4 g/dL | TBIL (24 h): 0.3 mg/dL | TC (24 h): 77.2 mg/dL | TG (24 h): 113.2 mg/dL | TP (24 h): 5.8 g/dL | gamma-GTP (24 h): 1.5 IU/L
